Data: publication PMC8774223, “Comparison of Antiplatelet Effects of Phenol Derivatives in Humans” (Biomolecules, 2022)
Converted amounts (≈) assume the structure as drawn. “And” between values parts separate entries of the source, which are not always exact repeats. Identical values can stand only once. “Also recorded” adds a separate entry of the source. Like-named read-outs stand apart in the source and are kept apart here.

What was measured:
[1] = system: platelet aggregation triggered by AA; test: Arachidonic acid (AA)-induced platelet aggregation, whole blood aggregometry; format: cell-based, human; conditions: for IC50: Platelet
Method: (§1) Blood from 20 non-smoking, young (aged from 22 to 45 years, median 27), healthy volunteers was collected by venipuncture into plastic tubes containing heparin sodium (170 IU/10 mL; Zentiva, Prague, Czech Republic). No medication had been taken by volunteers 14 days prior blood collection and no alcohol had been consumed 12 h before the blood draw.
A total of 300 µL of whole blood was diluted with the same volume of 0.9 % sodium chloride (B.Braun, Melsungen, Germany) preheated to 37 °C and incubated with 5 µL of a tested compound dissolved in DMSO (Penta, Prague, Czech Republic) at a final concentration of 0.8% for 3 min at 37 °C. Platelet aggregation was then induced by addition of collagen (Diagnostica a.s., Czech Republic), arachidonic acid (AA) or Thrombin Receptor Activating Peptide (TRAP) (Roche Holding AG, Basel, Switzerland) and monitored for 6 min. The dose of inducer was initially set to the minimal concentration which caused maximal aggregation. The second calibration was carried out by use of standards, 4-methylcatechol in the case of AA- and collagen-triggered aggregation (Sigma-Aldrich) or vorapaxar for thrombin aggregation (Selleck Chemicals GmbH, Munich, Germany). […] For comparison, also the clinically used standard ASA was employed.

[2] = system: platelet aggregation induced by collagen; test: Collagen-induced platelet aggregation, whole blood aggregometry; format: cell-based, human; conditions: for IC25: Platelet, human whole blood, read-out: IC25 (Mean ± SD, μM) on Collagen-Induced Platelet Aggregation; for Effect on collagen-induced aggregation compared with ASA: comparison of 95% confidence intervals of fitted curves / IC25
Method: as §1, with “draw. The protocol was approved by the Ethics Committee of the Faculty of Pharmacy, Charles University on May 31, 2019.” for “draw.”
A total of 300 µL of whole blood was diluted with the same volume of 0.9 % sodium chloride (B.Braun, Melsungen, Germany) preheated to 37 °C and incubated with 5 µL of a tested compound dissolved in DMSO (Penta, Prague, Czech Republic) at a final concentration of 0.8% for 3 min at 37 °C. Platelet aggregation was then induced by addition of collagen (Diagnostica a.s., Czech Republic), arachidonic acid (AA) or Thrombin Receptor Activating Peptide (TRAP) (Roche Holding AG, Basel, Switzerland) and monitored for 6 min. The dose of inducer was initially set to the minimal concentration which caused maximal aggregation. The second calibration was carried out by use of standards, 4-methylcatechol in the case of AA- and collagen-triggered aggregation (Sigma-Aldrich) or vorapaxar for thrombin aggregation (Selleck Chemicals GmbH, Munich, Germany). The final concentrations of inducers were in the range of 0.16–2.42 µg/mL for collagen, 25–196 µM for AA and 0.8–9.8 µM for TRAP. For comparison, also the clinically used standard ASA was employed.

hepatic HepG2 = system: hepatic HepG2; parameters: method as in PMID 35547925, PMID 30614688, doi:10.1016/j.jff.2019.01.047; conditions: cited from earlier work
[3] = system: human monocytic cell line THP-1; parameters: method as in PMID 35547925, PMID 30614688, doi:10.1016/j.jff.2019.01.047; conditions: cited from earlier work
Nrf2 = conditions: cited from earlier work; for Activation of Nrf2: many cell lines, effect observed even at 5 μM
[4] = system: anti-inflammatory activity; parameters: method as in PMID 30614688, doi:10.1016/j.jff.2019.01.047; conditions: 10 μM; cited from earlier work
plasmids = conditions: 50 μM, without redox-active metals; cited from earlier work
[5] = system: MCF-7/S0.5 human breast cancer cell line; test: CellTiter 96 AQueous One Solution Cell Proliferation Assay; format: cell-based; conditions: 48 h
Method: MCF-7/S0.5 human breast cancer cell line adapted to low-sera conditions (ECACC, Porton Down, Salisbury, UK) was used. Cells were maintained at 37 °C and 5% CO2 and were passaged once a week. Dulbecco’s Modified Eagle Medium/Nutrient Mixture F-12 (DMEM/F-12; Thermo Fisher, Waltham, MA, USA) supplemented with FBS Charcoal Stripped, antibiotics (penicillin/streptomycin) and insulin, according to cell provider instructions, was used as the growth medium. Cells were used in passages between 7 and 12.
Cell viability assay was performed using CellTiter 96® AQueous One Solution Cell Proliferation Assay (Promega, Madison, WI, USA). MCF-7 cells were seeded at a density of 80 × 10^3 cells per well in a 96-well plate. Cells were exposed to the compounds and incubated at 37 °C with CO2 5% for 48 h prior tetrazolium reagent [3-(4,5-dimethylthiazol-2-yl)-5-(3-carboxymethoxyphenyl)-2-(4-sulfophenyl)-2H-tetrazolium] addition (20 µL/well). DMSO at a final concentration of 0.1% (as it is not associated with toxicity) was used as a negative control (set to 100% viability), and sodium dodecyl sulfate (SDS 10%) as positive control. After incubation period CellTiter reagent was added to the cells and further incubated for 3 h. After this time, absorbance was recorded at a wavelength of 490 nm by use of a microplate reader (Hidex Oy, Turku, Finland). All samples were performed in triplicates and repeated at least three times.

bacterial colonies = system: bacterial colonies; parameters: method as in PMID 11351422; conditions: cited from earlier work
[6] = system: encephalomyocarditis virus; parameters: method as in PMID 35558500; conditions: cited from earlier work; for Antiviral potency relative to catechol: lowest tested concentration 0.4 mg/mL (approximately 3 mM)
[7] = parameters: method as in PMID 10956160, PMID 12065208; conditions: chronic high dose studies; cited from earlier work
mice = system: mice; parameters: method as in PMID 10956160, PMID 12065208; conditions: cited from earlier work
rats = system: rats; parameters: method as in PMID 10956160, PMID 12065208; conditions: cited from earlier work
[8] = system: three different cell lines; parameters: method as in PMID 26885667; conditions: 30 μM; cited from earlier work
platelet aggregation = conditions: cited from earlier work
thrombin pathway = conditions: cited from earlier work
[9] = parameters: method as in PMID 25571923; conditions: humans, on average; cited from earlier work
[10] = Homo sapiens, read-out: IC50 class, colour key of Figure 3
[11] = human whole blood, class assigned by colour of the drawn structure, read-out: IC50 class, colour key of Figure 3
[12] = human whole blood, read-out: IC50 (Mean ± SD, μM) on Arachidonic Acid-induced Platelet Aggregation

Compound: COc1ccccc1OC [1,2-dimethylcatechol, 1,2-dimethoxybenzene]
- IC50 ([1]; Homo sapiens, read-out: IC50 (Mean ± SD, μM) on Arachidonic Acid-induced Platelet Aggregation): ~78 µM
- IC50 [1, 10]: > 100 µM
- Activity towards AA-induced aggregation (in words) ([1]; human whole blood): inactive

Compound: COc1ccc(C)c(OC)c1 [2,4-dimethoxytoluene]
- IC50 [1, 11]: > 100 µM
- IC50 [1, 12]: ~32 µM

Compound: Nc1ccccc1O [2-aminophenol]
- IC50 [1, 12]: 6.65 ± 1.06 µM

Compound: CCc1ccc(O)c(OC)c1 [2-methoxy-4-ethylphenol]
- IC25 [2]: 5.07 ± 4.05 µM
- IC50 [1, 11]: < 3 µM
- IC50 [1, 12]: 1.37 ± 0.28 µM
- Concentration from which mildly toxic (hepatic HepG2): about 660 μM and ~100 mg/L
- Concentration below which toxicity was not observed [3]: ≥ 5000 µM
- Activation of the Nrf2 pathway after its suppression by lipopolysaccharide (Nrf2; 10 μM): activated the Nrf2 pathway
- Activation of the Nrf2 pathway (Nrf2; only concentrations higher than 650 μM were tested): activated the Nrf2 pathway
- Anti-inflammatory activity [4]: anti-inflammatory activity was observed

Compound: COc1cc(C)ccc1O [2-methoxy-4-methylphenol]
- IC25 [2]: 11.5 ± 9.05 µM
- Effect on collagen-induced aggregation compared with ASA [2]: significantly more efficient than ASA
- IC50 [1, 11]: < 3 µM
- IC50 [1, 12]: 2.57 ± 2.24 µM

Compound: Oc1cc(Cl)cc(Cl)c1O [3,5-dichlorocatechol]
- IC50 [1, 10]: > 10 µM
- IC50 [1, 12]: 13.5 ± 1.57 µM
- DNA damage (plasmids): no DNA damage was observed
- Cell proliferation / viability, MCF-7/S0.5 ([5]; 10 μM): not toxic
- Cell proliferation / viability, MCF-7/S0.5 ([5]; 100 μM): decreased cell proliferation
- Formation of bacterial colonies (bacterial colonies; 10 μM): blocked the formation of bacterial colonies
- Antibacterial activity (bacterial colonies): Antibacterial activity was observed

Compound: Nc1cccc(O)c1O [3-aminocatechol]
- IC50 [1, 12]: 3.82 ± 0.5 µM

Compound: Oc1cccc(F)c1O [3-fluorocatechol]
- IC50 [1, 11]: < 3 µM
- IC50 [1, 12]: 1.74 ± 0.17 µM

Compound: CC(C)c1cccc(O)c1O [3-isopropylcatechol]
- IC25 [2]: 12.9 ± 21.3 µM
- IC50 [1, 11]: < 3 µM
- IC50 [1, 12]: 2.28 ± 0.3 µM
- Cell proliferation / viability, MCF-7/S0.5 ([5]; 10 μM): not toxic
- Cell proliferation / viability, MCF-7/S0.5 ([5]; 100 μM): decreased cell proliferation

Compound: COc1cccc(O)c1O [3-methoxycatechol]
- IC50 [1, 12]: 7.92 ± 0.74 µM
- Antiviral potency relative to catechol [6]: more potent

Compound: Cc1cccc(O)c1O [3-methylcatechol]
- IC25 [2]: 7.15 ± 6.41 µM
- IC50 [1, 11]: < 3 µM
- IC50 [1, 12]: 1.61 ± 0.17 µM

Compound: Oc1cc(Cl)c(Cl)cc1O [4,5-dichlorocatechol]
- IC25 [2]: 9.86 ± 15.1 µM
- IC50 [1, 12]: 3.35 ± 0.92 µM
- Cell proliferation / viability, MCF-7/S0.5 ([5]; 10 μM): not toxic
- Cell proliferation / viability, MCF-7/S0.5 ([5]; 100 μM): decreased cell proliferation
- Cell proliferation / viability, MCF-7/S0.5 ([5]; 100 μM, listed as 4,5-dichlorcatechol): blocked cell proliferation

Compound: C=CCc1ccc(OC)c(OC)c1 [4-allyl-1,2-dimethylcatechol, 4-allyl-1,2-dimethoxybenzene]
- Rat plasma levels [7]: 4–46 μM and 0.66–8.25 μg/mL
- IC50 [1, 11]: > 100 µM
- IC50 [1, 12]: ~61 µM
- Activity towards AA-induced aggregation (in words) ([1]; human whole blood): inactive; also recorded: inactive or only weakly active
- Tumors (mice): elicited liver but also other tumors
- Tumors (rats): elicited liver but also other tumors

Compound: Nc1ccc(O)c(O)c1 [4-aminocatechol]
- IC50 [1, 11]: > 10 µM
- IC50 [1, 12]: ~21 µM

Compound: Oc1ccc(Cl)cc1O [4-chlorocatechol]
- IC50 [1, 12]: 3.66 ± 0.29 µM
- DNA damage (plasmids): no DNA damage was observed
- Antibacterial activity (bacterial colonies): Antibacterial activity was observed

Compound: CCc1ccc(O)c(O)c1 [4-ethylcatechol]
- IC25 [2]: 4.61 ± 1.16 µM
- Effect on collagen-induced aggregation compared with ASA [2]: significantly more efficient than ASA
- IC50 [1, 11]: < 3 µM
- IC50 [1, 12]: 1.29 ± 0.14 µM
- Activation of Nrf2 (Nrf2): clearly confirmed
- Toxicity to cell lines [8]: not toxic
- Antiviral potency relative to catechol [6]: more potent

Compound: CCc1ccc(O)cc1 [4-ethylphenol]
- Activation of Nrf2 (Nrf2): inactive

Compound: Oc1ccc(F)cc1O [4-fluorocatechol]
- IC25 [2]: 4.72 ± 0.28 µM
- Effect on collagen-induced aggregation compared with ASA [2]: significantly more efficient than ASA
- IC50 [1, 11]: < 3 µM
- IC50 [1, 12]: 1.82 ± 0.21 µM

Compound: Cc1ccc(O)c(O)c1 [4-methylcatechol, reference compound]
- IC25 [2]: 2.66 ± 2.21 µM
- IC50 [1, 11]: < 3 µM
- IC50 [1, 12]: 2.59 ± 0.17 µM
- Antiplatelet potency relative to acetylsalicylic acid (ASA) (platelet aggregation): approximately ten times higher potency
- Effect on thrombin pathway (thrombin pathway): no effect
- Toxicity to cell lines [8]: not toxic

Compound: O=[N+]([O-])c1ccc(O)c(O)c1 [4-nitrocatechol]
- IC50 [1, 11]: > 10 µM
- IC50 [1, 12]: 13.3 ± 1.57 µM
- Cell proliferation / viability, MCF-7/S0.5 ([5]; 10 μM): not toxic
- Cell proliferation / viability, MCF-7/S0.5 ([5]; 100 μM): decreased cell proliferation

Compound: CC(C)(C)c1ccc(O)c(O)c1 [4-tert-butylcatechol]
- IC50 [1, 12]: 7.24 ± 3.75 µM

Compound: C=Cc1ccc(O)c(O)c1 [4-vinylcatechol]
- Toxicity to cell lines [8]: not toxic

Compound: CC(=O)Oc1ccccc1C(=O)O [ASA, acetylsalicylic acid, reference compound]
- IC25 [2]: 26.9 ± 2.25 µM

Compound: Cc1ccccc1O [o-cresol]
- IC50 [1, 10]: > 10 µM
- IC50 [1, 12]: 12 ± 5.55 µM
- Inhibition of platelet aggregation (platelet aggregation): inhibited platelet aggregation
- Effect on thrombin pathway (thrombin pathway): no effect

Compound: Cc1ccccc1N [o-toluidine]
- IC50 [1, 10]: > 100 µM
- Activity towards AA-induced aggregation (in words) ([1]; human whole blood): inactive or only weakly active

Compound: O=S(=O)(O)Oc1ccccc1O [pyrocatechol-sulfate]
- Plasma levels [9]: 12 µM

Compound: Oc1ccccc1O [pyrocatechol]
- IC50 [1, 12]: 4 ± 0.45 µM
- Activation of Nrf2 (Nrf2): clearly confirmed
- Antibacterial activity (bacterial colonies): Antibacterial activity was observed
- Toxicity to cell lines [8]: not toxic
- IC50 antiviral activity [6]: 670 µg/mL (≈ 6.08 mM)
- IC50 ([6]; read-out: IC50 antiviral activity): 6000 µM
